Measured values: patent US20220047752A1, “BIOLOGICAL INDICATOR FOR DISINFECTION PROCESS CHALLENGE DEVICE” (3M INNOVATIVE PROPERTIES COMPANY, priority 2016, published 2022)

Legend:
[1] = tested on: Aspergillus brasiliensis (ATCC 16404) spores; experiment: Flow-through disinfection, indicator device connected to the AER flow pump system; spore viability in malt extract broth; assay type: cell-based; conditions: 0.35% OPA at 25 C pumped through device at approx. 25 ml/min, incubated up to 7 days, duplicate devices
Experimental: (§1) Aspergillus brasiliensis (ATCC 16404) was inoculated onto the surface of a potato dextrose agar culture and incubated 14 days at 25-30° C. After the incubation period, the surface of the plate was flooded with an aqueous solution of glycerol (10% v/v) and Tween 20 detergent (0.05% v/v). The viable fungal spore population was determined by standard plate counting method using PETRIFILM™ Rapid Yeast and Mold Count Plates (RYM) obtained from 3M Company (St. Paul, Minn.). The plates were incubated at 28-30° C. for 2-3 days. The resulting spore suspension was stored at −80 degrees C. until use.
(§2) The spore suspension was diluted in water to a concentration of approximately 10^8 spores/mL. Ten microliters (approximately 1×10^6 spores) of the diluted spore suspension was pipetted onto a circular disc (approximately 0.25 inch (6.4 mm) diameter) nonwoven carrier material (Sontara® grade 8005 nonwoven material obtained from Dupont (Candler, N.C.)). The spore-coated discs were allowed to dry for 24 hours at room temperature before assembling the indicator device.
(§3) Indicator devices were made by inserting aerosol-filter pipet tips (Part #16466-008; sterile aerosol 1000 uL pipet tips; VWR; Radnor, Pa.) into a piece of hollow tubing (Part #14-169-7C; PVC tubing, 0.25-inch (6.4 mm) inner diameter; Fisher Scientific; Waltham, Mass.), as shown in FIGS. 13-14. […]

[2] = tested on: Aspergillus brasiliensis (ATCC 16404) spores; experiment: Liquid disinfection process in AER basin, indicator device not connected to the pump; spore viability in malt extract broth; assay type: cell-based; conditions: 0.35% OPA (minimum effective concentration), 5 minute contact at 25 C, two rinses with purified water; approx. 1x10^6 spores on carrier; broth incubated 7 days at 30 C
Experimental: as §1, §2, §3

Measured: growth of spores in malt extract broth after contact with the liquid disinfectant

O=Cc1ccccc1C=O [OPA, ortho-phthalaldehyde]
No growth: [1]; 30 seconds contact | [1]; 5 minutes contact | [2]
